The nature of series [1]: Metabolic stability in hepatocytes. Format: in vitro ADME. The conditions noted are these: for half-life: read-out: T1/2, hepatocytes. Here is the method:
Additional Data on Preclinical PK Profile—Protein binding of the compound of Formula (III) was studied using an equilibrium dialysis method in plasma from human, cynomolgus monkey, beagle dog, Sprague Dawley rat, CD-1 mouse, and guinea pig at 0.25, 2.5, and 25 μM. […] In human and monkey, the plasma protein binding was concentration dependent. […] Free fraction of the compound of Formula (III) in liver microsomes from various species ranged from 75.1% to 87.9% at 0.25 mg/mL and from 58.9% to 86.5% at 1.0 mg/mL (Table 17). […] In hepatocytes, the compound of Formula (III) turnover followed a similar trend, with T1/2 ranging from 75.3 minutes in monkey to 278.1 minutes in human.

The target of another series is T1, CYP3A4 (Homo sapiens, UniProt P08684).
T1 construct: with specific CYP probe substrates in human liver microsomes; from tissue; host or cells: human liver microsomes
In words: CYP inhibition in human liver microsomes. It is filed as in vitro ADME. How it is done: (§1) The potential of the compound of Formula (III) to inhibit human CYP450s in vitro was investigated up to test concentrations of 50 μM by incubating the compound of Formula (III) with specific CYP probe substrates in human liver microsomes and measuring probe metabolite formation.
On the technique in general: Microsomes from liver hold many membrane-bound enzymes, among them those of drug oxidation.

The next series concerns the target T2, CYP2C19 (Homo sapiens, UniProt P33261).
T2 construct: with specific CYP probe substrates in human liver microsomes; from tissue; host or cells: human liver microsomes
Description: CYP inhibition in human liver microsomes. It is filed as in vitro ADME. The conditions noted are these: probe S-Mephenytoin. How it is done:
as §1

For the next series, the target named is T3, CYP1A2 (Homo sapiens, UniProt P05177).
T3 construct: with specific CYP probe substrates in human liver microsomes; from tissue; host or cells: human liver microsomes
In words: CYP inhibition in human liver microsomes. It is filed as in vitro ADME. The conditions noted are these: probe Phenacetin. How it is done:
as §1

For the next series, the target named is T4, CYP2C9 (Homo sapiens, UniProt P11712).
T4 construct: with specific CYP probe substrates in human liver microsomes; from tissue; host or cells: human liver microsomes
In words: CYP inhibition in human liver microsomes. It is filed as in vitro ADME. Here is the method: as §1

For a further series, the target named is T5, CYP2D6 (Homo sapiens, UniProt P10635).
T5 construct: with specific CYP probe substrates in human liver microsomes; from tissue; host or cells: human liver microsomes
In words: CYP inhibition in human liver microsomes. It is filed as in vitro ADME. The conditions noted are these: probe Dextromethorphan. Here is the method: as §1

The target of the next series is T6, CYP2B6 (Homo sapiens, UniProt P20813).
T6 construct: with specific CYP probe substrates in human liver microsomes; from tissue; host or cells: human liver microsomes
In words: CYP inhibition in human liver microsomes. The conditions noted are these: probe Bupropion. Format: in vitro ADME. How it is done: as §1

The target of the next series is T7, CYP2A6 (Homo sapiens, UniProt P11509).
T7 construct: with specific CYP probe substrates in human liver microsomes; from tissue; host or cells: human liver microsomes
Description: CYP inhibition in human liver microsomes. It is filed as in vitro ADME. The conditions noted are these: probe Coumarin. Here is the method: as §1

The target of the next series is T8, CYP2C8 (Homo sapiens, UniProt P10632).
T8 construct: with specific CYP probe substrates in human liver microsomes; from tissue; host or cells: human liver microsomes
In words: CYP inhibition in human liver microsomes. The conditions noted are these: probe Amodiaquine. Format: in vitro ADME. How it is done:
as §1

Another series deals with T9, CYP2E1 (Homo sapiens, UniProt P05181).
T9 construct: with specific CYP probe substrates in human liver microsomes; from tissue; host or cells: human liver microsomes
Description: CYP inhibition in human liver microsomes. Format: in vitro ADME. The conditions noted are these: probe Chlorzoxazone. How it is done: as §1

For series [2], the system named is TMD8 (CD79b/Myd88/A20 mutant). Description: Antiproliferative activity, 8 days. Format: cell-based. The conditions noted are these: Homo sapiens, TMD8, 192 h, n = 4. Here is the method:
(§2) In Vitro Activity in DLBCL Cell Lines—NFκB signaling regulates the secretion of multiple cytokines, including interleukin (IL)-6 and IL-10. Secretion of IL-6 and -10 by ABC-DLBCL OCI-LY-10 cells was measured using a MesoScale assay. […] To determine the anti-proliferative activity of the compound of formula (III), several ABC-DLBCL cell lines—OCI-LY-3, OCI-LY-10, TMD8, and HBL-1—were treated for 8 days. […] The OCI-LY-3 cell line, which harbors a CARD11 mutation downstream of BTK in the NF-κB signaling pathway, was completely insensitive to the compound of Formula (III) up to 2 μM. In 2 experiments, OCI-LY-3 cells were insensitive to the compound of Formula (III) at all concentrations up to 10 μM.

In series [3] the test system is OCI-LY10 (CD79b/Myd88/A20 mutant). Description: Antiproliferative activity, 8 days. It is filed as cell-based. The conditions noted are these: Homo sapiens, OCI-Ly10, 192 h, n = 4. Here is the method:
as §2

Series [4] deals with HBL1 (CD79b/Myd88/A20 mutant). Description: Antiproliferative activity, 8 days. Format: cell-based. The conditions noted are these: Homo sapiens, HBL1, 192 h, n = 4. Here is the method: as §2
For a further series, the target named is T10, TEC (Homo sapiens, UniProt P42680).
T10 construct: purchased Eurofins Scientific
T10 sequence (P42680 1-631): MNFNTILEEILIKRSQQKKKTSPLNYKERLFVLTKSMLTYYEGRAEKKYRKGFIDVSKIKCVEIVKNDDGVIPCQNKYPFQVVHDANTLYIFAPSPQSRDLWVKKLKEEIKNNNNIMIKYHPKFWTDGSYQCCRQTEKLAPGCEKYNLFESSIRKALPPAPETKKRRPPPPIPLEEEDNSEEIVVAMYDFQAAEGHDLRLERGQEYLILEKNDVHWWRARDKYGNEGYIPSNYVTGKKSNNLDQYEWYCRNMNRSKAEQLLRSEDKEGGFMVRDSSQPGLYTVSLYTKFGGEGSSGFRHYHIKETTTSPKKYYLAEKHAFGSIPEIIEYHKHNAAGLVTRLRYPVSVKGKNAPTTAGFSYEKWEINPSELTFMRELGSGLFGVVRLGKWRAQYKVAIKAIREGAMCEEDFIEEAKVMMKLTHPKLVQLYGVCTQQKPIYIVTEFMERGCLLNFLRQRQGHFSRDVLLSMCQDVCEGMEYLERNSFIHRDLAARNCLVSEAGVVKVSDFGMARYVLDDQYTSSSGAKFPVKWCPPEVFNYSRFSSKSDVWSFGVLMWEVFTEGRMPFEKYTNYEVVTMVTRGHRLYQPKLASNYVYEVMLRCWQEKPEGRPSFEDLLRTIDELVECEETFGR
Description: ActivX KiNativ native kinase profiling, Ramos cell lysates. It is filed as binding. Here is the method:
RESULTS AND DISCUSSION—Selectivity—The compound of Formula (III) was evaluated in three selectivity panels to assess the potential for off-target pharmacology (Table 8). […] The kinase off-target profile of The compound of Formula (III) was assessed in a full human wild-type panel using radiometric kinase activity assays (KinaseProfiler™ and IC50Profiler™; Eurofins Scientific) (Table 9; FIG. 23). The compound of Formula (III) inhibited 4/278 kinases >50% at 1 micromolar, identifying BTK and the three other kinases having analogous Cys residues with the potential for covalent inhibition (BMX, TEC, BLK). […]. The cellular kinase selectivity of The compound of Formula (III) was established in native Ramos B cell kinome assays (KiNativ™; ActivX) confirmed BTK as the primary target with inhibition of BLK and TEC inhibition detected (Table 10).

Like-named read-outs stand apart in the source and are kept apart here.

T1 sequence (P08684 whole entry): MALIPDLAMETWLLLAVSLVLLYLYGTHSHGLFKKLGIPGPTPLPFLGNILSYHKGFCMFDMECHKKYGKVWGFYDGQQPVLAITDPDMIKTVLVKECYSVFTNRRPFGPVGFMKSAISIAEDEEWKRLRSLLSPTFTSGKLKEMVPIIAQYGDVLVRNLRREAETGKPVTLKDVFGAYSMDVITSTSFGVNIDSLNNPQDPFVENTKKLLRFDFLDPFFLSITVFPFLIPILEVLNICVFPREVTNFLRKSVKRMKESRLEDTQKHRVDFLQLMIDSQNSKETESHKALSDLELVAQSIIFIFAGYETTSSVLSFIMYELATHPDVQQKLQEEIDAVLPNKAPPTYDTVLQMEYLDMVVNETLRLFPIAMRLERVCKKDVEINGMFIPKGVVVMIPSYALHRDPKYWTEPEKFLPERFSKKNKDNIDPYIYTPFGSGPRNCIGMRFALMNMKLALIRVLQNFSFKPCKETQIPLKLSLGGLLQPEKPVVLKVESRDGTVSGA
T4 sequence (P11712 whole entry): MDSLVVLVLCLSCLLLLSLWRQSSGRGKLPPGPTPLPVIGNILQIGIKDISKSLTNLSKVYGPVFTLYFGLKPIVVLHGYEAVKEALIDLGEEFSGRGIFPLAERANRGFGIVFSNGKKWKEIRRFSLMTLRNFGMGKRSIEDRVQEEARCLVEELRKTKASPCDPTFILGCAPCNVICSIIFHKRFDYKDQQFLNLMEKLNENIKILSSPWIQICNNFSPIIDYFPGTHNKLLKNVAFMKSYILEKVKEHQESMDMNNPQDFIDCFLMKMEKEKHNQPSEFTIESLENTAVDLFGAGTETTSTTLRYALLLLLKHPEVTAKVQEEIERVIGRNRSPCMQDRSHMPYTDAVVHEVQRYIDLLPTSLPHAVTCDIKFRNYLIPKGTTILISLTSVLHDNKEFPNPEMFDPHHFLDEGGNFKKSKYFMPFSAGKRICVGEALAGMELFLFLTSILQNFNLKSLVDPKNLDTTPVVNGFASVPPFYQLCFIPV
T8 sequence (P10632 whole entry): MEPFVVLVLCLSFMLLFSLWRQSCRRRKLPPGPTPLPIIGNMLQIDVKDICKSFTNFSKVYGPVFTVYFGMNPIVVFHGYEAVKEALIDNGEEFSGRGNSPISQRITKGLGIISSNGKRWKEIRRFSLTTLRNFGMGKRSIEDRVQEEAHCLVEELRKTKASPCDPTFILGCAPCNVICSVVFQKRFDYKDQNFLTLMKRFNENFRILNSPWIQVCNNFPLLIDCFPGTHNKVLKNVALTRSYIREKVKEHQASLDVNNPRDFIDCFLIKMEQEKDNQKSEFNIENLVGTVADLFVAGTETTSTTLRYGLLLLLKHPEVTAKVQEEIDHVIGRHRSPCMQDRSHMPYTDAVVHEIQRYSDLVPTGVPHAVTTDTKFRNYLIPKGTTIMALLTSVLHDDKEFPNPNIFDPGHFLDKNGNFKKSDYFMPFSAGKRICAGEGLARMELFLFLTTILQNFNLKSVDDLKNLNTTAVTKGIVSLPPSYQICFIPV
T5 sequence (P10635 whole entry): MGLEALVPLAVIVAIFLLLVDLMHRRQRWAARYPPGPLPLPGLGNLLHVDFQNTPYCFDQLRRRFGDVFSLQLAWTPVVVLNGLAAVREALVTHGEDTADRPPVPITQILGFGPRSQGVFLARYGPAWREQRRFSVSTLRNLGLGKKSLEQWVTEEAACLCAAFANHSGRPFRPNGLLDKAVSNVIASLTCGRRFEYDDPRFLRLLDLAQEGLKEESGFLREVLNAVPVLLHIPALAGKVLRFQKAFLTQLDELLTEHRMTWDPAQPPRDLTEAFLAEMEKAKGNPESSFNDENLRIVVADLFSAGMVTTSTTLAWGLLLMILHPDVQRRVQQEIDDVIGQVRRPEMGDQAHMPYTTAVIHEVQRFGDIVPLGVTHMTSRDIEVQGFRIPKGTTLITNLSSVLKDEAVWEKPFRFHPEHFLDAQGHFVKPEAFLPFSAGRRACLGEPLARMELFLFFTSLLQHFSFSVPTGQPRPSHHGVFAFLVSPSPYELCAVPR
T9 sequence (P05181 whole entry): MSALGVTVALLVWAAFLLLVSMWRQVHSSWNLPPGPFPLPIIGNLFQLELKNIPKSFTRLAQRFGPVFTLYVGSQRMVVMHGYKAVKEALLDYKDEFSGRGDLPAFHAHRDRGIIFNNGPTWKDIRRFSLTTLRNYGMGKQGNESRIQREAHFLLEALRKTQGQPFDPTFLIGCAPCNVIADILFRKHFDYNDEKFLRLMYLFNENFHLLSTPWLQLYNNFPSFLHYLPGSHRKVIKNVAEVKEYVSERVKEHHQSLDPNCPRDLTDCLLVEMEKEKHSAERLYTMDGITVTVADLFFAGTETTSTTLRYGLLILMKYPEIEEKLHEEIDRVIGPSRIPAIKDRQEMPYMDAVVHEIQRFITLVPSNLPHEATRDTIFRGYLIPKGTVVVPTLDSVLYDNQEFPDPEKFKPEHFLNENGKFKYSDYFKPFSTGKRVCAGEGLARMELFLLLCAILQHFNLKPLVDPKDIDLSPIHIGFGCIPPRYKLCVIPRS
T3 sequence (P05177 whole entry): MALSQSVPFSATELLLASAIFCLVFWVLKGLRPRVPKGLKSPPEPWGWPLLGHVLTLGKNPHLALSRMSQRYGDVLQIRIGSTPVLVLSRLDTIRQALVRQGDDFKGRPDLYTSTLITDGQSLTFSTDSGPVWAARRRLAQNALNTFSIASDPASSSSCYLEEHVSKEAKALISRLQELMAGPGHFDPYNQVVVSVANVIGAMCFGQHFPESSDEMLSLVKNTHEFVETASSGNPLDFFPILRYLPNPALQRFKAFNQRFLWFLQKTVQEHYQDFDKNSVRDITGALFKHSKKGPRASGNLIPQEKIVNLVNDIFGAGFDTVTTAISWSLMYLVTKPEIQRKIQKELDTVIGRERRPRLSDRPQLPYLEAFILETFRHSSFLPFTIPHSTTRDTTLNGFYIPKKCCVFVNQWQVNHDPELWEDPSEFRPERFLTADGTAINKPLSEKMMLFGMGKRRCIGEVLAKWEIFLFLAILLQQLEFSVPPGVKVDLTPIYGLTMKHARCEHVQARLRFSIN
T6 sequence (P20813 whole entry): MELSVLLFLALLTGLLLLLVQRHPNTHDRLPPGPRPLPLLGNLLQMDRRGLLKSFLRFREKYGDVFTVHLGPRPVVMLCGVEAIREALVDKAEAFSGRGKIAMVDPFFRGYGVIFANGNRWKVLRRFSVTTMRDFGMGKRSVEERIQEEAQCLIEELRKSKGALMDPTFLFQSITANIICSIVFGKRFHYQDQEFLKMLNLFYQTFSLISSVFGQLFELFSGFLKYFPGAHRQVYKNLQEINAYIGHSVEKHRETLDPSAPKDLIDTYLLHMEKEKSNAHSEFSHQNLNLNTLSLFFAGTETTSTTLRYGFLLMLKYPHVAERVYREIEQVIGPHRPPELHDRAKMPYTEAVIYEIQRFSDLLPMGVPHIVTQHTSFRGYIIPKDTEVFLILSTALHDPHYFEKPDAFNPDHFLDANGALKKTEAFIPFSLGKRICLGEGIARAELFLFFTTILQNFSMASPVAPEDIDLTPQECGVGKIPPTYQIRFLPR
T7 sequence (P11509 whole entry): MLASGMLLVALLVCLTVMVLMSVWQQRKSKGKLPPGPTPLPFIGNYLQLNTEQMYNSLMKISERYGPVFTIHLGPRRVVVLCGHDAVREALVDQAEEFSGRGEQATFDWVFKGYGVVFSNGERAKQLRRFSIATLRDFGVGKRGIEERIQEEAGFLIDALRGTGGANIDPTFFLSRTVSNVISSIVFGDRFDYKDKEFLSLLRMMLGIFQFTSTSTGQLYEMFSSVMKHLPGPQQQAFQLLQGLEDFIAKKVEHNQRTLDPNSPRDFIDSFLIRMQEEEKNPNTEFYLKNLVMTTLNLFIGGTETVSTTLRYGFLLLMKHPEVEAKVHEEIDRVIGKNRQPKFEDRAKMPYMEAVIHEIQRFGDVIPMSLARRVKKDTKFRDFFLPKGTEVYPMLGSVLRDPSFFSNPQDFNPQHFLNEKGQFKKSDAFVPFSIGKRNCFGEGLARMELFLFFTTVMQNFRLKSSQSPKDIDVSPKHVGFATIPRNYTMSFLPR
T2 sequence (P33261 whole entry): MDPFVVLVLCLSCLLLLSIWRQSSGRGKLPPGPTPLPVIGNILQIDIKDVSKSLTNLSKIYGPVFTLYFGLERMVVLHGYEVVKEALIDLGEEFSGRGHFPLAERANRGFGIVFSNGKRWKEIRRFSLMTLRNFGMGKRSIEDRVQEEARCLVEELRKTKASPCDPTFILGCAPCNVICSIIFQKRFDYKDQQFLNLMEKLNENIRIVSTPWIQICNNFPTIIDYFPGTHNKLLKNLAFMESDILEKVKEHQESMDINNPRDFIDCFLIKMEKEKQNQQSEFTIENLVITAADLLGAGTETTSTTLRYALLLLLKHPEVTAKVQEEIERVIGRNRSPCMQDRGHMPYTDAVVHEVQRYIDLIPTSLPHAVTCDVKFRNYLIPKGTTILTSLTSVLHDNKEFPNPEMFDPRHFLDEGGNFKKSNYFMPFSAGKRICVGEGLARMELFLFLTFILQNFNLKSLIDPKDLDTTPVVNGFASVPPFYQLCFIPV

Broadly, the hepatocyte CLint is a measure of how fast metabolising enzymes remove a compound, apart from limits set by blood flow. A lower hepatocyte CLint goes with greater metabolic stability. In general, IC50 refers to the concentration that gives 50% inhibition. Read a high IC50 as lower potency. Usually inhibition stands for the percentage by which the read-out fell short of the control. Higher therefore signals a strong effect. In the case of `C=CC(=O)N[C@H]1CCC[C@H]1NC(=O)c1sc2nccc3c2c1NC(=O)N3c1cnc(CC(C)C)cc1C` (atropisomer, axis not shown) [compound of Formula (III), N-((1R,2S)-2-Acrylamidocyclopentyl)-5-(S)-(6-isobutyl-4-methylpyridin-3-yl)-4-oxo-4,5-dihydro-3H-1-thia-3,5,8-triazaacenaphthylene-2-carboxamide], the hepatocyte CLint in series [1] (dog) is 19.2 µL/min/1e6 cells; in [1] (human) it was 15.4 µL/min/1e6 cells; in series [1] (rat) it was 52.3 µL/min/1e6 cells. For the same compound, the half-life in [1] (dog) was found to be 4.62 h; in series [1] (human) it was 4.64 h; in series [1] (rat), 2.12 h. Further, the IC50 at CYP3A4 (probe Midazolam) is 25 µM; against CYP3A4 (probe Nifedipine), above 50 µM; against CYP3A4 (probe Testosterone) it was 40 µM; against CYP2C19, above 50 µM; on CYP1A2, above 50 µM; against CYP2C9 (probe Diclofenac) it was 3 µM. The 50% inhibitory concentration (IC50) is 5.3 µM at CYP2C9 (probe Tolbutamide); 26 µM on CYP2D6; above 50 µM at CYP2B6; above 50 µM on CYP2A6; 16 µM at CYP2C8; above 50 µM against CYP2E1. In addition, the IC50 in series [2] came out at 0.034 µM; in series [3] it was 0.018 µM; in series [4], 0.03 µM. The compound further registered an inhibition at 1 µM against TEC of 77.6%.

Values taken from patent US12622910B2, “Inhibitors of Bruton's tyrosine kinase and methods of their use” (Janssen Pharmaceutica NV, priority 2021, dated 2026).
